This is an account of results in PMC9268025, “GC-MS/MS Quantification of EGFR Inhibitors, β-Sitosterol, Betulinic Acid, (+) Eriodictyol, (+) Epipinoresinol, and Secoisolariciresinol, in Crude Extract and Ethyl Acetate Fraction of Thonningia sanguinea” (Molecules, 2022).

For the assay, the target named is epidermal growth factor receptor (EGFR) (Homo sapiens, UniProt P00533). As to the kind of experiment: ADP-Glo EGFR kinase inhibition assay (Promega V9261), eight concentrations. The format is biochemical. Background: ADP-Glo turns the ADP formed in a reaction into a luminescent signal.

The structures appear in SMILES notation.

epidermal growth factor receptor (EGFR), sequence (P00533 25-1210): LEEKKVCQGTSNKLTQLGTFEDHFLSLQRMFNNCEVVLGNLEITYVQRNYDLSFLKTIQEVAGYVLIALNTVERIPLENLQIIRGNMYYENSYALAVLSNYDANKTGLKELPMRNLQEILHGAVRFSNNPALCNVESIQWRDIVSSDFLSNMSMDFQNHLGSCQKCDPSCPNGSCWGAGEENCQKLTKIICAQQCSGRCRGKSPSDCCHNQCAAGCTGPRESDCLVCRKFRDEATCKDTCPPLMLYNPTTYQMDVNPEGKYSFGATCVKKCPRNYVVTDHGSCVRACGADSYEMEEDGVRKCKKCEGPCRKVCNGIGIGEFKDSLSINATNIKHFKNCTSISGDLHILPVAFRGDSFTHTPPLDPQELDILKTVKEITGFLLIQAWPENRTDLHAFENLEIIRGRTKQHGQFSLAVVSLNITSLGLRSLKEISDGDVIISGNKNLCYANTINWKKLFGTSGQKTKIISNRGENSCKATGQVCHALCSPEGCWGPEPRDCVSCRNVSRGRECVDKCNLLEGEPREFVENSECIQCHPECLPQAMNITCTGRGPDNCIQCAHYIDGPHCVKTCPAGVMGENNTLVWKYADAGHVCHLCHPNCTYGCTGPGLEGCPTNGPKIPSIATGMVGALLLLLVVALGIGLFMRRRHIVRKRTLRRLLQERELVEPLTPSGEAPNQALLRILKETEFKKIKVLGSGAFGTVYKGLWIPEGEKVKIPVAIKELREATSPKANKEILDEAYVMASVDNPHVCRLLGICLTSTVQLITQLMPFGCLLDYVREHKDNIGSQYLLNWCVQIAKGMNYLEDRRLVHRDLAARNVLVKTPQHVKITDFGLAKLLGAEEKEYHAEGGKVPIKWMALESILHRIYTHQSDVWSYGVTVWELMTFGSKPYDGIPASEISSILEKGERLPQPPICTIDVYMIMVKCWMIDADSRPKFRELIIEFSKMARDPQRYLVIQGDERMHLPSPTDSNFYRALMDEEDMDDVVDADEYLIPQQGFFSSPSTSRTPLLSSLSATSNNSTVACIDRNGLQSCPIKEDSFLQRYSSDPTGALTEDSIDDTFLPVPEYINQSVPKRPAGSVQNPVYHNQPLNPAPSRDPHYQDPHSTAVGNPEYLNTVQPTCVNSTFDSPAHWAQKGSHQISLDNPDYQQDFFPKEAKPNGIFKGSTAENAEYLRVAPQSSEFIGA

The term IC50 denotes the concentration that inhibits the measured activity by half. Take `O=C1C[C@@H](c2ccc(O)c(O)c2)Oc2cc(O)cc(O)c21` [(+) Eriodictyol]: half-maximal inhibition (IC50) was put at 76.2 nM.

As for `COc1cc(C[C@@H](CO)[C@H](CO)Cc2ccc(O)c(OC)c2)ccc1O` [Secoisolariciresinol], the half-maximal inhibitory concentration (IC50) amounted to 80.3 nM.
